Source: patent publication US6822120B2, “Sulfone liver X-receptor modulators” (Pharmacia Corporation, priority 2002, dated 2004)

melting point	SMILES
129 °C	Cc1ccc(S(=O)(=O)Cc2ccc(C(O)(C(F)(F)F)C(F)(F)F)cc2)cc1 [Example 2, 1,1,1,3,3,3-Hexafluoro-2-(4-{[(4-methylphenyl)sulfonyl]methyl}phenyl)propan-2-ol]
126 °C	O=S(=O)(Cc1ccc(C(O)(C(F)(F)F)C(F)(F)F)cc1)c1ccc(Br)cc1 [Example 4, 2-(4-{[(4-Bromophenyl)sulfonyl]methyl}phenyl)-1,1,1,3,3,3-hexafluoropropan-2-ol]
124 °C	O=S(=O)(Cc1ccc(C(O)(C(F)(F)F)C(F)(F)F)cc1)c1ccccc1Br [Example 5, 2-(4-{[(2-Bromophenyl)sulfonyl]methyl}phenyl)-1,1,1,3,3,3-hexafluoropropan-2-ol]
121 °C	O=S(=O)(Cc1ccc(C(O)(C(F)(F)F)C(F)(F)F)cc1)c1cccc(Br)c1 [Example 6, 2-(4-{[(3-Bromophenyl)sulfonyl]methyl}phenyl)-1,1,1,3,3,3-hexafluoropropan-2-ol]
112 °C	O=S(=O)(Cc1ccc(C(O)(C(F)(F)F)C(F)(F)F)cc1)c1ccc(Cl)cc1 [Example 7, 2-(4-{[(4-Chlorophenyl)sulfonyl]methyl}phenyl)-1,1,1,3,3,3-hexafluoropropan-2-ol]

The next lines start with the compound.

SMILES	melting point
O=S(=O)(Cc1ccc(C(O)(C(F)(F)F)C(F)(F)F)cc1)c1ccc2ccccc2c1 [Example 3, 1,1,1,3,3,3-Hexafluoro-2-{4-[(2-naphthylsulfonyl)methyl]phenyl}propan-2-ol]	148 °C
CC(c1ccc(C(O)(C(F)(F)F)C(F)(F)F)cc1)S(=O)(=O)c1ccccc1 (stereo not drawn) [Example 8, 1,1,1,3,3,3-Hexafluoro-2-{4-[1-(phenylsulfonyl)ethyl]phenyl}propan-2-ol]	136 °C
O=S(=O)(c1ccccc1)C(Cc1ccccc1)c1ccc(C(O)(C(F)(F)F)C(F)(F)F)cc1 (stereo not drawn) [Example 9, 1,1,1,3,3,3-Hexafluoro-2-{4-[2-phenyl-1-(phenylsulfonyl)ethyl]phenyl}propan-2-ol]	157 °C
CC(C)(C)C(=O)C(c1ccc(C(O)(C(F)(F)F)C(F)(F)F)cc1)S(=O)(=O)c1ccccc1 (stereo not drawn) [Example 11, 3,3-Dimethyl-1-(phenylsulfonyl)-1-{4-[2,2,2-trifluoro-1-hydroxy-1-(trifluoromethyl) -ethyl]phenyl}butan-2-one]	172 °C
C=CCC(c1ccc(C(O)(C(F)(F)F)C(F)(F)F)cc1)S(=O)(=O)c1ccccc1 (stereo not drawn) [Example 14, 1,1,1,3,3,3-Hexafluoro-2-{4-[1-(phenylsulfonyl)but-3-enyl]phenyl}propan-2-ol]	148 °C
CCC(c1ccc(C(O)(C(F)(F)F)C(F)(F)F)cc1)S(=O)(=O)c1ccccc1 (stereo not drawn) [Example 15, 1,1,1,3,3,3-Hexafluoro-2-{4-[1-(phenylsulfonyl)propyl]phenyl}propan-2-ol]	148 °C
O=S(=O)(c1ccccc1)C(CC(F)(F)F)c1ccc(C(O)(C(F)(F)F)C(F)(F)F)cc1 (stereo not drawn) [Example 16, 1,1,1,3,3,3-Hexafluoro-2-{4-[3,3,3-trifluoro-1-(phenylsulfonyl)propyl]phenyl}propan-2-ol]	151 °C
Cc1ccc(CC(c2ccc(C(O)(C(F)(F)F)C(F)(F)F)cc2)S(=O)(=O)c2ccccc2)cc1 (stereo not drawn) [Example 17, 1,1,1,3,3,3-Hexafluoro-2-{4-[2-(4-methylphenyl)-1-(phenylsulfonyl)ethyl]phenyl}propan-2-ol]	159 °C
O=S(=O)(c1ccccc1)C(Cc1ccc(-c2ccccc2)cc1)c1ccc(C(O)(C(F)(F)F)C(F)(F)F)cc1 (stereo not drawn) [Example 18, 2-{4-[2-(1,1′-Biphenyl-4-yl)-1-(phenylsulfonyl)ethyl]phenyl}-1,1,1,3,3,3-hexafluoropropan-2-ol]	192 °C
CC(C)(c1ccc(C(O)(C(F)(F)F)C(F)(F)F)cc1)S(=O)(=O)c1ccccc1 [Example 19, 1,1,1,3,3,3-Hexafluoro-2-{4-[1-methyl-1-(phenylsulfonyl)ethyl]phenyl}propan-2-ol]	185 °C
